The term EC50 denotes the concentration giving half of the maximal effect.

Where only a bound is given, the exact number is not on record here.

The source of these data is patent publication US10611740B2, “Aryl dihydro-2H-benzo[b][1,4]oxazine sulfonamide and related compounds for use as agonists of RORγ and the treatment of disease” (Lycera Corporation, priority 2015, dated 2020).

The target in test [1] is T1, RORγ-LBD (Homo sapiens, UniProt P51449).
T1 construct: made in house; host or cells: SF9 cells (baculovirus)
T1 sequence (P51449 269-508 limits assumed): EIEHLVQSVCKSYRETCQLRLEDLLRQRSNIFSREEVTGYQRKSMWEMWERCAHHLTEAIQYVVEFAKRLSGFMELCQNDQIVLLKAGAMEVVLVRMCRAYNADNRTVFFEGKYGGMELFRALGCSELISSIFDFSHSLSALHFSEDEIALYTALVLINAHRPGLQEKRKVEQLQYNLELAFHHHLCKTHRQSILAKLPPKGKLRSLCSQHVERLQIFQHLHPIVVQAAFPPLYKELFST
Briefly: RORγ-Ligand Binding Domain (LBD) TR-FRET Assay.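 As to TR-FRET Assay Max Response: 665/615 nm ratio relative to signal without ursolic acid or compound set at 100.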 The test is classed as biochemical. In short, it runs like this:
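This TR-FRET coactivator assay pairs baculovirus-expressed His-RORγ-LBD (~3 nM final) with biotin-SRC1 LXXLL peptide at 200 nM final in pH 7.0 Tris/KCl/EDTA/DTT/BSA buffer.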
A general note: Time-resolved FRET reads energy transfer from a long-lived donor to a nearby acceptor.

Test [2] concerns the target T2, Gal4-RORγ-LBD (Homo sapiens, UniProt P51449).
T2 construct: expressed in transfected cells; host or cells: HEK-293 cells (pcDNA3.1neo plasmid)
T2 sequence (P51449 269-508 limits assumed): T1 sequence (P51449 269-508 limits assumed)
Briefly: Gal4-RORγ Luciferase Reporter Assay in HEK-293T Cells. Type of test: cell-based. As to conditions: HEK-293 cells, luciferase reporter, with 2 μM ursolic acid. In short, it runs like this:
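Luminescence read-out (One-Glo, 10 min RT) after overnight compound exposure at 37 °C in HEK-293 cells carrying Gal4-RORγ-LBD plus a Gal4-luciferase reporter, in the presence of 2 μM ursolic acid. Max Response is the upper plateau from a 4-parameter logistic fit, normalized to untreated signal = 100.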

`CC(C)C(=O)NC[C@H]1CN(S(=O)(=O)c2cccc(C(F)(F)F)c2)c2cc(-c3cc(F)ccc3F)ccc2O1` [Compound 30AX, (S)-N-((6-(2,5-difluorophenyl)-4-((3-(trifluoromethyl)phenyl)-sulfonyl)-3,4-dihydro-2H-benzo[b][1,4]oxazin-2-yl)methyl)isobutyramide]: in test [1], the EC50 is below 0.5 µM and the “TR-FRET Assay Max Response” value was “*** (The symbol “***” indicates a value in the range of greater than 150 to 200)”. In test [2], the EC50 is below 0.5 µM and the “Gal4-RORγ Assay Max Response” value is given as “** (The symbol “**” indicates a value in the range of greater than 90 to 150)”.

With `CC(=O)OCC(=O)NC[C@H]1CN(S(=O)(=O)c2cccc(C(F)(F)F)c2)c2cc(-c3cc(F)ccc3F)ccc2O1` [Compound 30AY, (S)-2-(((6-(2,5-difluorophenyl)-4-((3-(trifluoromethyl)phenyl)-sulfonyl)-3,4-dihydro-2H-benzo[b][1,4]oxazin-2-yl)methyl)amino)-2-oxoethyl acetate], in test [1], the EC50 is below 0.5 µM and the “TR-FRET Assay Max Response” value is listed as “*** (The symbol “***” indicates a value in the range of greater than 150 to 200)”. In addition, in test [2], the EC50 was below 0.5 µM and the “Gal4-RORγ Assay Max Response” value is “** (The symbol “**” indicates a value in the range of greater than 90 to 150)”.

Consider `O=C(NC[C@H]1CN(S(=O)(=O)c2cccc(C(F)(F)F)c2)c2cc(-c3cc(F)ccc3F)ccc2O1)C1CCCC1` [Compound 30AZ, (S)-N-((6-(2,5-difluorophenyl)-4-((3-(trifluoromethyl)phenyl)-sulfonyl)-3,4-dihydro-2H-benzo-[b][1,4]oxazin-2-yl)methyl)-cyclopentanecarboxamide], for which, in test [1], the EC50 is below 0.5 µM and the “TR-FRET Assay Max Response” value is given as “**** (The symbol “****” indicates a value greater than 200)”. Also, in test [2], the concentration for a half-maximal effect (EC50) was below 0.5 µM and the “Gal4-RORγ Assay Max Response” value is listed as “** (The symbol “**” indicates a value in the range of greater than 90 to 150)”.

For `CC(C)(O)C(=O)NCC[C@H]1CN(S(=O)(=O)c2cccc(C(F)(F)F)c2)c2cc(-c3cccc(C(F)(F)F)n3)ccc2O1` [Compound 30B, (S)-2-hydroxy-2-methyl-N-(2-(4-((3-(trifluoromethyl)phenyl)-sulfonyl)-6-(6-(trifluoromethyl)-pyridin-2-yl)-3,4-dihydro-2H-benzo[b][1,4]oxazin-2-yl)ethyl)propanamide], in test [1], the EC50 was below 0.5 µM and the “TR-FRET Assay Max Response” value is reported as “**** (The symbol “****” indicates a value greater than 200)”. Besides, in test [2], the half-maximal effective concentration (EC50) was below 0.5 µM and the “Gal4-RORγ Assay Max Response” value is “** (The symbol “**” indicates a value in the range of greater than 90 to 150)”.

Regarding `O=C(CO)NC[C@H]1CN(S(=O)(=O)c2cccc(C(F)(F)F)c2)c2cc(-c3cc(F)ccc3F)ccc2O1` [Compound 30BA, (S)-N-((6-(2,5-difluorophenyl)-4-((3-(trifluoromethyl)phenyl)-sulfonyl)-3,4-dihydro-2H-benzo[b][1,4]oxazin-2-yl)methyl)-2-hydroxyacetamide], in test [1], the EC50 was below 0.5 µM and the “TR-FRET Assay Max Response” value is “*** (The symbol “***” indicates a value in the range of greater than 150 to 200)”. Further, in test [2], the EC50 is below 0.5 µM and the “Gal4-RORγ Assay Max Response” value was “** (The symbol “**” indicates a value in the range of greater than 90 to 150)”.

For the compound `O=C(NC[C@H]1CN(S(=O)(=O)c2cccc(C(F)(F)F)c2)c2cc(-c3cc(F)ccc3F)ccc2O1)C1CCC1` [Compound 30BB, (S)-N-((6-(2,5-difluorophenyl)-4-((3-(trifluoromethyl)phenyl)-sulfonyl)-3,4-dihydro-2H-benzo-[b][1,4]oxazin-2-yl)methyl)-cyclobutanecarboxamide], in test [1], the EC50 is below 0.5 µM and the “TR-FRET Assay Max Response” value is reported as “*** (The symbol “***” indicates a value in the range of greater than 150 to 200)”. Besides, in test [2], the EC50 is below 0.5 µM and the “Gal4-RORγ Assay Max Response” value was “* (The symbol “*” indicates a value in the range of 25 to 90)”.

Take `CN(C)c1cccc(-c2ccc3c(c2)N(S(=O)(=O)c2cccc(C(F)(F)F)c2)C[C@H](CNC(=O)C2CC2)O3)n1` [Compound 30BC, (S)-N-((6-(6-(dimethylamino)-pyridin-2-yl)-4-((3-(trifluoro-methyl)phenyl)sulfonyl)-3,4-dihydro-2H-benzo[b][1,4]-oxazin-2-yl)methyl)cyclo-propanecarboxamide]: in test [1], the half-maximal effective concentration (EC50) is below 0.5 µM and the “TR-FRET Assay Max Response” value was “*** (The symbol “***” indicates a value in the range of greater than 150 to 200)”. In test [2], the half-maximal effective concentration (EC50) was below 0.5 µM and the “Gal4-RORγ Assay Max Response” value is “** (The symbol “**” indicates a value in the range of greater than 90 to 150)”.

On to `CC(=O)NC[C@H]1CN(S(=O)(=O)c2cccc(C(F)(F)F)c2)c2cc(-c3cc(F)ccc3F)ccc2O1` [Compound 30BD, (S)-N-((6-(2,5-difluorophenyl)-4-((3-(trifluoromethyl)phenyl)-sulfonyl)-3,4-dihydro-2H-benzo[b][1,4]oxazin-2-yl)methyl)acetamide], for which, in test [1], the EC50 is below 0.5 µM and the “TR-FRET Assay Max Response” value was “**** (The symbol “****” indicates a value greater than 200)”. Besides, in test [2], the EC50 was below 0.5 µM and the “Gal4-RORγ Assay Max Response” value is listed as “** (The symbol “**” indicates a value in the range of greater than 90 to 150)”.

Take `CC(C)(F)C(=O)NC[C@H]1CN(S(=O)(=O)c2cccc(C(F)(F)F)c2)c2cc(-c3cc(F)ccc3F)ccc2O1` [Compound 30BE, (S)-N-((6-(2,5-difluorophenyl)-4-((3-(trifluoromethyl)phenyl)-sulfonyl)-3,4-dihydro-2H-benzo[b][1,4]oxazin-2-yl)methyl)-2-fluoro-2-methylpropanamide]: in test [1], the EC50 was below 0.5 µM and the “TR-FRET Assay Max Response” value was “*** (The symbol “***” indicates a value in the range of greater than 150 to 200)”. In test [2], the EC50 was below 0.5 µM and the “Gal4-RORγ Assay Max Response” value is recorded as “* (The symbol “*” indicates a value in the range of 25 to 90)”.

As to `COc1cc(F)cc(-c2ccc3c(c2)N(S(=O)(=O)c2cccc(C(F)(F)F)c2)C[C@H](CNC(=O)[C@@](C)(O)C(F)(F)F)O3)c1F` [Compound 30BF, (R)-N-(((S)-6-(2,5-difluoro-3-methoxyphenyl)-4-((3-(trifluoro-methyl)phenyl)sulfonyl)-3,4-dihydro-2H-benzo[b][1,4]-oxazin-2-yl)methyl)-3,3,3-trifluoro-2-hydroxy-2-methylpropanamide], in test [1], the EC50 is below 0.5 µM and the “TR-FRET Assay Max Response” value is given as “**** (The symbol “****” indicates a value greater than 200)”. Further, in test [2], the EC50 was below 0.5 µM and the “Gal4-RORγ Assay Max Response” value was “* (The symbol “*” indicates a value in the range of 25 to 90)”.

Consider `NS(=O)(=O)CCC(=O)NC[C@H]1CN(S(=O)(=O)c2cccc(C(F)(F)F)c2)c2cc(-c3cccc(C(F)(F)F)n3)ccc2O1` [Compound 30BG, (S)-3-sulfamoyl-N-((4-((3-(trifluoromethyl)phenyl)-sulfonyl)-6-(6-(trifluoro-methyl)pyridin-2-yl)-3,4-dihydro-2H-benzo[b][1,4]-oxazin-2-yl)methyl)-propanamide], for which, in test [1], the concentration for a half-maximal effect (EC50) is below 0.5 µM and the “TR-FRET Assay Max Response” value was “*** (The symbol “***” indicates a value in the range of greater than 150 to 200)”. For the same compound, in test [2], the EC50 is 0.5 to 5 µM and the “Gal4-RORγ Assay Max Response” value is “** (The symbol “**” indicates a value in the range of greater than 90 to 150)”.

As to `N#CCC(=O)NC[C@H]1CN(S(=O)(=O)c2cccc(C(F)(F)F)c2)c2cc(-c3cccc(C(F)(F)F)n3)ccc2O1` [Compound 30BH, (S)-2-cyano-N-((4-((3-(trifluoromethyl)phenyl)-sulfonyl)-6-(6-(trifluoro-methyl)pyridin-2-yl)-3,4-dihydro-2H-benzo[b][1,4]-oxazin-2-yl)methyl)acetamide], in test [1], the half-maximal effective concentration (EC50) was below 0.5 µM and the “TR-FRET Assay Max Response” value is reported as “*** (The symbol “***” indicates a value in the range of greater than 150 to 200)”. In test [2], the EC50 was in the range of 0.5 to 5 µM and the “Gal4-RORγ Assay Max Response” value is given as “** (The symbol “**” indicates a value in the range of greater than 90 to 150)”.

On to `CC(C)(CO)C(=O)NC[C@H]1CN(S(=O)(=O)c2cccc(C(F)(F)F)c2)c2cc(-c3cccc(C(F)(F)F)n3)ccc2O1` [Compound 30BI, (S)-3-hydroxy-2,2-dimethyl-N-((4-((3-(trifluoromethyl)-phenyl)sulfonyl)-6-(6-(trifluoromethyl)pyridin-2-yl)-3,4-dihydro-2H-benzo[b][1,4]-oxazin-2-yl)methyl)-propanamide], for which, in test [1], the EC50 is below 0.5 µM and the “TR-FRET Assay Max Response” value was “*** (The symbol “***” indicates a value in the range of greater than 150 to 200)”. In test [2], the EC50 was in the range of 0.5 to 5 µM and the “Gal4-RORγ Assay Max Response” value is “* (The symbol “*” indicates a value in the range of 25 to 90)”.
